From patent publication US20210186972A1, “FORMULATIONS AND METHODS FOR THE PREVENTION AND TREATMENT OF TUMOR METASTASIS AND TUMORIGENESIS” (THE UNITED STATES OF AMERICA, AS REPRESENTED BY THE …, priority 2018, published 2021)

Columns and labels:
[1] = test system: Pol II transcription; assay: Pol II transcription status: CUGBP and SC35 immunolabeling; type: cell-based
From the text: To further determine whether metarrestin interferes with Pol II transcription in general, CUGBP was immunolabeled. The steady state nuclear distribution of CUGBP, a multifunctional hnRNP protein highly enriched in the PNC, is dependent upon Pol II transcription.

[2] = test system: PC3M-GFP-PTB cells; assay: PNC prevalence / PNC disassembly in PC3M-GFP-PTB cells; type: cell-based, human; conditions: screening hit
From the text: FIG. 1 is a graph showing the concentration-response curve against PNC prevalence in PC3M (a metastatic prostate cancer cell line)-GFP (green fluorescent protein)-PTB (polypyrimidine tract-binding protein) cells (squares, PC3M, has a PNC prevalence of 75-85% in the absence of treatment) and cytotoxicity as measured by cellular ATP (CELLTITER GLO™) (circles). Representative PTB-GFP images for cells at the indicated concentrations (arrowheads indicate PNCs) (scale bar=5 μm) are shown in the three panels above the graph. The relative signal (%) is along the y-axis and Metarrestin [log M] is along the x-axis.
(§1) A metastatic prostate cancer cell line, PC3M, was developed in order to screen small molecules that effectively disassemble PNCs (see Pettaway, et al., “Selection of highly metastatic variants of different human prostatic carcinomas using orthotopic implantation in nude mice,” Clin. Cancer Res., (2): 1627-36 (1996), incorporated herein in its entirety). PC3M has a […] stably express GFP-PTB (polypyrimidine track binding protein) (FIG. 1, top panels), an essential component of PNCs (see Huang, et al., “The perinucleolar compartment and transcription,” Journal of Cell Biology, (143): 35-47 (1998), incorporated herein in its entirety). Compounds able to reduce PNC prevalence by 50% were filtered in secondary assays to eliminate those that induced apoptosis, DNA damage, generic cytotoxicity, or cell-cycle blockage (see Norton, et al., “Automated high-content screening for compounds that disassemble the perinucleolar compartment,” J Biomol Screen, (14): 1045-53 (2009) and Frankowski, et al., “Discovery and Development of Small Molecules That Reduce PNC Prevalence, in Probe Reports from the NIH Molecular Libraries Program, Bethesda (Md.).(2010), incorporated herein in their entirety). The remaining hits were evaluated for invasion inhibition through MATRIGEL gelatinous protein mixture and anchorage-independent growth inhibition using soft agar assays.

[3] = Invasion through MATRIGEL, screening hits; type: cell-based; conditions: screening hit
From the text: as §1

[4] = Cytotoxicity secondary assay of screening hits; type: cell-based; conditions: screening hit
From the text: as §1

[5] = Anchorage-independent growth, soft agar assay of screening hits; type: cell-based; conditions: screening hit
From the text: as §1

[6] = test system: PC3M cells; assay: PNC disassembly by biotin-metarrestin in cultured cells; type: cell-based, human; conditions: 1 μM, 24 hours (FIG. 60)
Experimental: FIG. 60 is a set of panels showing the effectiveness of biotin-metarrestin in disassembling PNCs. The effects of metarrestin and biotin-metarrestin were compared in PC3M cells treated at 1 μM or untreated for 24 hours. Arrows indicate PNCs. Scale bar=5 μm.

**Q.** What does the source list for `CC[C@H](C)[C@@H]1NC(=O)CNC(=O)[C@@H]2Cc3c([nH]c4cc(O)ccc34)[S+]([O-])C[C@@H](NC(=O)CNC1=O)C(=O)N[C@@H](CC(N)=O)C(=O)N1C[C@H](O)C[C@H]1C(=O)N[C@@H]([C@@H](C)[C@@H](O)CO)C(=O)N2` (stereo in doubt) [α-amanitin, reference compound]?
**A.** Localization of CUGBP [1]: induces a localization shift to the cytoplasm; SC35 distribution pattern [1]: changed to isolated large dots

**Q.** With `N=c1c2c(-c3ccccc3)c(-c3ccccc3)n(Cc3ccccc3)c2ncn1CCCO` [MLS000556915] as the molecule, how does the PNC inhibition [2] read?
**A.** potency as a PNC inhibitor

**Q.** What about the Invasion [3] of the same molecule?
**A.** ability to block invasion

**Q.** What about the Cytotoxicity [4] of the same molecule?
**A.** lack of cytotoxicity

**Q.** What about the Soft agar growth [5] of the same molecule?
**A.** soft agar growth inhibitor

**Q.** With `N=c1c2c(-c3ccccc3)c(-c3ccccc3)n(Cc3cccc(C#CCCCCNC(=O)CCCC[C@@H]4SC[C@@H]5NC(=O)N[C@@H]54)c3)c2ncn1[C@H]1CC[C@H](O)CC1` [biotin-conjugated metarrestin, N-(6-(3-((3-(trans-4-hydroxycyclohexyl)-4-imino-5,6-diphenyl-3,4-dihydro-7H-pyrrolo[2,3-d]pyrimidin-7-yl)methyl)phenyl)hex-5-yn-1-yl)-5-((3aS,4S,6aR)-2-oxohexahydro-1H-thieno[3,4-d]imidazol-4-yl)pentanamide] as the molecule, how does the “PNC disassembly in cultured cells” value [6] read?
**A.** maintains its efficacy for PNC disassembly
